Results: PubChem BioAssay (NCI)
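48-hour exposure; five concentrations; linearly interpolated endpoints. GI50 is the concentration that inhibits growth by half. At the TGI there is no net growth.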

Legend:
Test in all cases: NCI tumour cell line growth inhibition, 48 h
[1] = test system: A549 NSCLC
[2] = test system: HCC-2998 colon
[3] = test system: HCT-116 colon
[4] = test system: IGROV1 ovarian
[5] = test system: OVCAR-4 ovarian
[6] = test system: SNB-19 CNS
[7] = test system: SNB-75 CNS
[8] = test system: SR leukemia

| Compound | GI50 [1] [µM] | TGI [1] [µM] | GI50 [2] [µM] | TGI [2] [µM] | GI50 [3] [µM] | TGI [3] [µM] | GI50 [4] [µM] | TGI [4] [µM] | GI50 [5] [µM] | TGI [5] [µM] | GI50 [6] [µM] | TGI [6] [µM] | GI50 [7] [µM] | TGI [7] [µM] | GI50 [8] [µM] | TGI [8] [µM] |
| --- | --- | --- | --- | --- | --- | --- | --- | --- | --- | --- | --- | --- | --- | --- | --- | --- |
| COc1ccc(/C=C(\C#N)n2nnc3ccccc32)cc1 | 0.235 | > 100 | 0.458 | 7.11 | 0.0955 | 2.15 | 0.158 | 8.16 | 0.615 | > 82.5 | 0.361 | 13.3 | 0.0327 | 0.337 | 0.0555 | > 39.6 |
| Oc1ccccc1C=Nc1nc(SCc2ccccc2)nc2[nH]ncc12 | 65.2 | > 100 | 47.9 | > 100 |  |  | > 100 | > 100 | > 100 | > 100 | 49.5 | > 100 | > 100 | > 100 | 22.5 | > 100 |
| O=Cc1ccccc1B(O)O |  | 38.5 |  |  |  | > 100 |  | > 100 |  | > 100 |  | > 100 |  | > 100 |  | 2.08 |
| COc1cc(/C=N/NC(=O)c2cnn3c2NC(c2ccccc2)C3)ccc1Oc1ccccc1 (centres undefined) | 1.5 | 5 | 3.6 | 30 |  |  | 1.36 | 10.8 | 1.41 | 3.78 | 1.43 | 8.31 | 1.3 | 3.41 | 0.488 | 10 |
| O=P(CCCCP(=O)(c1ccccc1)c1ccccc1)(c1ccccc1)c1ccccc1.[Cl][Sn]([Cl])([c]1ccccc1)[c]1ccccc1 | 3.59 | > 23.6 | 2.76 | 10.1 | 1.71 | > 100 | 3.9 | 8.39 | 1.54 | 3 | 4.18 | 18 | 1.57 | 3.29 | 1.78 | > 100 |
| Cc1cc(=O)[nH]c2cc3c(c4c(n3Cc3ccc(Cl)cc3Cl)CC(C)(C)CC4=O)c(O)c12 | 46.3 | > 100 | > 100 | > 100 | > 100 | > 100 | > 100 | > 100 | > 100 | > 100 | 55.8 | > 100 | 24.6 | 59.8 | 25.2 | > 100 |
| C=C1C(=O)O[C@H]2[C@H](OC(C)=O)[C@@H](C)CCC/C(C)=C/CC[C@@]3(C)O[C@@H]3C[C@@H]12 |  | 34.6 |  | 11.6 |  | 6.83 |  | 18.4 |  | 8.76 |  | 34 |  | 21.2 |  | 6.02 |
| O=c1[nH]c(=O)c2cc(C3CC(O)C(CO)O3)ccc2[nH]1 (centres undefined) | > 100 | > 100 | > 100 | > 100 | > 100 | > 100 | > 100 | > 100 | 43.5 | > 100 | > 100 | > 100 | 26.8 | > 100 |  |  |
| COc1ccc(NC(=O)COCCOCCNC[C@@H]2C(=O)O[C@H]3[C@H]2CC/C(COC(=O)OC/C2=C/CC[C@@]4(C)O[C@H]4[C@H]4OC(=O)[C@@H](CN(C)C)[C@@H]4CC2)=C\CC[C@@]2(C)O[C@@H]32)c(O)c1C(N)=O | 31.8 | > 50 | 10.2 | 19.1 | 3.5 | 9.86 | 4.68 | 11.8 | 3.19 | 10.2 | 14.3 | > 50 | 10.2 | > 50 | 1.99 | 9.28 |
| C=C(C)[C@@H]1CC[C@]2(C)[C@H](CC=C3[C@@H]4[C@@H](C)[C@H](C)CC[C@]4(C(N)=O)CC[C@]32C)[C@@]1(C)CCC#N | 3.35 | > 100 | 4.8 | 18.8 | 15.6 | 29.9 | 5.58 | > 100 | 3.74 | > 100 | 6.31 | > 100 | 3.57 | > 100 | 2.58 | 9.48 |
| COC(=O)CCC1CCC(c2cc(F)ccc2F)(S(=O)(=O)c2ccc(Cl)cc2)CC1 (centres undefined) | 64.4 | > 100 | > 100 | > 100 | 38.2 | > 100 | > 100 | > 100 | 45.5 | > 100 | > 100 | > 100 | > 100 | > 100 | > 100 | > 100 |
| C=C1C(=O)O[C@H]2[C@H]1CCC(/C=N/c1ncc(Br)cc1N)=C\CC[C@@]1(C)O[C@@H]21 | 10.9 | 25.3 | 3.56 | 12.9 | 1.06 | 2.46 | 2.11 | 7.44 | 2.43 | 11.6 | 10.1 | 24.7 | 3.38 | 18 | 1.32 | 7.68 |
| COc1ccc(S(=O)(=O)Nc2cc(/C=C\c3cc(OC)c(OC)c(OC)c3)ccc2OC)cc1 | 0.159 | > 100 | 0.442 | > 100 | 0.0797 | > 100 | 0.166 | > 100 | 0.581 | > 100 | 0.352 | > 100 | 0.0708 | 91.4 | 0.0709 | 4.18 |
| COC(=O)C1CCCN1C(=O)[C@@H]1CCCN1C(=O)[C@H](Cc1c[nH]c2ccccc12)NC(=S)Nc1cc(C(F)(F)F)cc(C(F)(F)F)c1 (some centres undefined) | 1.98 | 6.92 | 1.96 | 4.5 | 1.72 | 3.34 | 3.34 | 10.9 | 3.18 | 11.2 | 2.7 | 12.1 | 2.48 | 8.92 | 1.92 | 5.03 |
| N#CC1=C(N)Oc2c(sc3c(Br)cccc23)C1c1ccc(Br)cc1 (centres undefined) | 0.424 | 2.23 | 1.77 | 7.33 | 0.407 | 1.84 | 0.887 | 12.9 | 1.46 | 15.5 | 0.707 | 12.8 | 0.407 | 3.09 | 0.208 | 5.91 |
| CC(C)c1c(O)ccc2c1CCC1C(C)(C)CCCC21C (centres undefined) |  | 31.9 |  | 37.2 |  | 31 |  | 30 |  | 32.9 |  | 32.3 |  | 33.1 |  | 40.5 |
| COc1ccc(-n2cc(-c3cc(OC)c(OC)c(OC)c3)nc2SCc2ccccc2)cc1OC | 48.8 | > 100 | > 100 | > 100 | 49.1 | > 100 | 31.6 | 88 | > 81.4 | > 100 | > 100 | > 100 | 34.4 | > 100 | 44.1 | > 100 |
| Oc1ccccc1CNCC12CC3CC(CC(C3)C1)C2 |  |  | 12.2 | 26.9 | 22 | > 100 | 41.8 | > 100 | 48.8 | > 100 | 60.3 | > 100 | 34.9 | > 100 | 20.4 | 58.6 |

| Compound | GI50 [1] [µM] | TGI [1] [µM] | GI50 [2] [µM] | TGI [2] [µM] | GI50 [3] [µM] | TGI [3] [µM] | GI50 [4] [µM] | TGI [4] [µM] | GI50 [5] [µM] | TGI [5] [µM] | GI50 [6] [µM] | TGI [6] [µM] | GI50 [7] [µM] | TGI [7] [µM] | GI50 [8] [µM] | TGI [8] [µM] |
| --- | --- | --- | --- | --- | --- | --- | --- | --- | --- | --- | --- | --- | --- | --- | --- | --- |
| Cc1cc(Cc2cc(C)cc(C(C)(C)C)c2O)c(O)c(Cc2cc(C)cc(C(C)(C)C)c2O)c1 |  | 11.3 |  |  |  | 5.44 |  | 14 |  | 11.7 |  | 15.7 |  | 14.2 |  | > 28.6 |
| CCC[CH2][Sn]([CH2]CCC)([CH2]CCC)[O]C(=O)c1ccc(Cl)cc1Cl | 0.164 | 0.328 | 0.168 | 0.31 | 0.127 | 0.262 | 0.15 | 0.308 | 0.0958 | 0.226 | 0.179 | 0.359 | 0.117 | 0.248 |  |  |
| S=c1ssc(Oc2ccccc2)c1Cl | 33.9 | > 100 | 3.7 | 14.7 |  |  |  |  | 34 | > 100 | 31.6 | 79.6 | 18 | 45 | 0.605 | > 100 |
| FC(F)(F)c1ccc(C#Cc2ccccc2C#Cc2ccccc2)cc1 | 49.9 | > 100 | 32.7 | 53.1 | 21.6 | > 100 | > 100 | > 100 | 57.5 | > 100 | 69.3 | > 100 | > 100 | > 100 |  |  |
| O=C1C2C(c3ccccc3)NC(c3ccccc3)C1C(c1ccccc1)NC2c1ccccc1 (centres undefined) |  | > 100 |  |  |  | > 100 |  | > 100 |  | > 100 |  | > 100 |  | > 100 |  | > 100 |
| O=C(O)C1C(C(=O)O)C23CC2(C(=O)O)C2(C(=O)O)CCC3=C3CCCC312 (centres undefined) |  | > 100 |  |  |  | 66.7 |  | 51.6 |  | 80.6 |  | 73.6 |  | 93.5 |  | 6.6 |
| Cc1ccc2nc(-c3ccccc3)c(N=O)n2c1 |  | > 100 |  |  |  | > 100 |  | > 100 |  | > 100 |  | > 100 |  | > 100 |  |  |
| CCOC(=O)/C(=C\c1ccc(C#N)cc1)C(C)=O |  | > 100 |  | 19.6 |  | 57.3 |  | 33.9 |  | 97.9 |  | > 100 |  | 45.5 |  |  |
| CC(NCCC(=O)N(CCC(=O)N(CCC(=O)N(CCC(=O)N(CCC(=O)N(CCC(=O)N(CCC(=O)N(CCC(=O)N(CCC(=O)N(CCC(=O)O)[C@H](C)c1ccccc1)[C@H](C)c1ccccc1)[C@H](C)c1ccccc1)[C@H](C)c1ccccc1)[C@H](C)c1ccccc1)[C@H](C)c1ccccc1)[C@H](C)c1ccccc1)[C@H](C)c1ccccc1)[C@H](C)c1ccccc1)c1ccccc1 (some centres undefined) | 3.56 | > 75 | 1.38 | 3.11 | 1.95 | > 19.9 | 0.872 | 15 | 2.48 | > 68.7 | > 19.1 | > 75 | 2.2 | 41.1 |  |  |
| COC(=O)C1=C(C(=O)OC)SC(=C(Cl)C(=S)Nc2ccccc2O)S1 | 21.2 | > 50 |  |  | 0.143 | > 50 |  |  | 35.5 | > 50 | 18 | > 50 | 33.7 | > 50 | 26.1 | > 50 |
| O=S(=O)(c1cccc2c(Cl)cccc12)N1CCCNCC1 | 14 | 28.2 |  |  | 10.3 | 21.9 | 18.6 | 34.6 | 11.2 | 24.3 | 16.3 | 30.5 |  |  |  |  |
| CN1C(=O)C(CC(=O)O)NC1=S (centres undefined) |  | > 100 |  | > 100 |  | > 100 |  | > 100 |  |  |  | > 100 |  | > 100 |  | > 100 |
| CC[C@@]1(OC(=O)CN)C(=O)OCc2c1cc1n(c2=O)Cc2cc3c(N)cccc3nc2-1 | < 0.0129 | 1.77 | 0.084 | 0.782 |  |  | 0.115 |  | 0.211 | 3.32 | < 0.01 | > 100 |  |  | < 0.01 |  |
| O=C(O)c1cc(-c2ccncc2)nc2ccccc12 |  | > 100 |  | > 100 |  | > 100 |  | > 100 |  | > 100 |  | > 100 |  |  |  | > 100 |
| O=c1oc2cc(N=Cc3ccc4c(c3)OCO4)ccc2c2ccccc12 |  | > 100 |  |  |  | > 100 |  | > 100 |  | > 100 |  | > 100 |  | 39.7 |  | > 100 |
| COc1ccc(/C(=N\O)c2cc(C)c(OC)c(C)c2)cc1O | 0.039 | > 100 | 0.0279 | > 100 | < 0.01 | > 100 | 0.0134 | > 100 | 0.0279 | > 100 | 0.0548 | > 100 |  |  | < 0.01 | > 100 |
| CNCCNc1c2c(c(NCCNC)c3[nH]ccc13)C(=O)c1ccccc1C2=O | 0.0904 | 0.427 | 0.203 | 0.649 | 0.0269 | 0.498 | 0.111 | 0.686 | 1.66 | 5.11 | 4.58 | 11.5 | 3.5 | 8.86 |  |  |
